This note sets out measurements from patent US7700080B2, “Method of suppressing melanin production by metal chelates of lipoyl amino acid derivatives” (Senju Pharmaceutical Co., Ltd., priority 2001, dated 2010).

The test system of assay [1] is B16-F0 melanoma cell line. Description: Melanin production suppressing activity in B16-F0 melanoma cells. The format is cell-based, mouse. The following applies: for Melanin amount (% of control): three days with 2 mM theophylline; for Suppressive action on melanin production (in words): summary of Table 2, compared with arbutin or kojic acid. As for the experimental part:
B16-F0 melanoma cell line of mouse origin, purchased from Dainippon Pharmaceutical Co., Ltd. was used in the experiment. In 60-mm petri dish, 200,000 cells were incubated for five days in a medium (D-MEM*+10% FBS*) supplemented with 0.1% D-glucosamine hydrochloride, an inhibitor of carbohydrate synthesis, to halt melanin synthesis and turn the culture white. Following the 5-day culture, the cells were washed with PBS(−)* to remove D-glucosamine hydrochloride, and 2 mM theophylline (250-fold concentrated solution/distilled water), a phosphodiesterase inhibitor, was added to raise intracellular cAMP and thereby promote the recovery of tyrosinase synthesis. At the same time, a test compound (250-fold concentrated solution/PBS(−)) was added. Three days after the addition of theophylline and the test compound, the cells were harvested by trypsin treatment. The cell pellets were resuspended in 1 ml of PBS(−), 0.1 ml of which was used for counting cells, and 0.9 ml for melanin determination. Determination of melanin was carried out by washing the cell pellets once with 5% trichloroacetic acid, ethanol/diethyl ether (3:1), and then diethyl ether, adding 1 ml of 2 N NaOH to lyse the cells, measuring optical density at 420 nm, and comparing the result with a calibration curve produced with reference standard.

A further assay has as its system elastase. Description: Elastase inhibiting activity (Suc(Ome)-Ala-Ala-Pro-Val-MCA fluorescence). Type of assay: biochemical. To be noted: for Elastase inhibition rate (%): 25° C., pH 7.5; for Elastase inhibiting activity (in words): summary of Table 3. As for the experimental part: 96-well plates were used. 1 mM of Suc(Ome)-Ala-Ala-Pro-Val-MCA, 30 μl of a test sample, 210 μl of Tris-NaCl Buffer (25° C., pH 7.5) and 30 μl of 1 unit/ml elastase were added and fluorescence was measured every minute (Ex. 360/40 nm, Em. 460/40 nm). Inhibition rates of elastase activity were determined based on a calibration curve produced with AMC (7-amino-4-methyl-coumarin) reference standard.

Assay [2] has as its target T1, Tyrosine hydroxylase from rat brain (Rattus norvegicus, UniProt P04177).
T1 construct: Tyrosine hydroxylase from rat brain was used in the test; from tissue; host or cells: rat brain
Briefly: Tyrosine hydroxylase inhibiting activity. The format is biochemical. To be noted: for Tyrosine hydroxylase inhibition rate: 37° C., 40 minutes, pH 6.0.
Procedure: Tyrosine hydroxylase from rat brain was used in the test.
A test compound added to 100 μM tyrosine containing L-[3,5-^3H] tyrosine (0.5 μCi/assay), 1 mg of tyrosine hydroxylase, 0.2 mM of (6R)-5,6,7,8-tetrahydro-L-biopterin, 1.8 mg/ml catalase, 5 mM dithiothreitol (in MES buffer, pH 6.0) was incubated at 37° C. for 40 minutes. The reaction was terminated by addition of 7.5% charcoal in 1 M hydrochloric acid.
^3H2O derived from 3,4-dihydroxyphenylalanine (DOPA) was determined by liquid scintillation.

T1 sequence (P04177 whole entry): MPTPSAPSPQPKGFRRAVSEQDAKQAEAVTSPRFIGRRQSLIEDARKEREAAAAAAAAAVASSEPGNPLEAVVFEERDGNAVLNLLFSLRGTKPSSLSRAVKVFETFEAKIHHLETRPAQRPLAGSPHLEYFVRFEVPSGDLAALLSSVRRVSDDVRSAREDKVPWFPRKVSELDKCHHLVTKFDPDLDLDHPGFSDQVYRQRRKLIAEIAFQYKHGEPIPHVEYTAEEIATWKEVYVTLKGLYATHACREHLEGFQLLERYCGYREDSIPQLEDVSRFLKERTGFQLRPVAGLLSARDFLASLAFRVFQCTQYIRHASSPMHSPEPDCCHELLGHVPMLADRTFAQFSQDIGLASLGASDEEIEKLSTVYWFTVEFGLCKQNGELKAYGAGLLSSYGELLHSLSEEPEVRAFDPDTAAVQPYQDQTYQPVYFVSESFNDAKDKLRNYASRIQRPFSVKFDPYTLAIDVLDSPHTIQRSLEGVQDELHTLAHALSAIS

As to `O=c1cc(CO)occ1O` [Kojic acid, reference compound], the “Melanin amount (% of control)” value in assay [1] (0.1 mM) is on record as 92.70 % of control; in assay [1] (0.3 mM) it was 88.04 % of control; in assay [1] (1 mM), 68.80 % of control; in assay [1] (10 mM), 18.73 % of control.
As to `O=C(CCCCC1CC[S][Zn][S]1)Nc1ccccc1C(=O)[O-].[Na+]` (centres unmarked) [Example 8, N-(6,8-dimercaptooctanoyl)anthranilic acid sodium salt zinc chelate compound], the “Melanin amount (% of control)” value is recorded as 72.47 % of control in assay [1] (0.03 mM), 47.64 % of control in assay [1] (0.1 mM) and 16.74 % of control in assay [1] (0.3 mM). In addition, in assay [1], the “Suppressive action on melanin production (in words)” value (“Suppressive action” below) is reported as “potent suppressive action on melanin production”. The “Elastase inhibition rate (%)” value is listed as 24.07% in the assay with elastase (0.03 mM), 48.15% with elastase (0.1 mM) and 72.22% with elastase (0.3 mM). In the assay on elastase, the “Elastase inhibiting activity (in words)” value was “comparable to Elastinal”.
Take `OC[C@H]1O[C@@H](Oc2ccc(O)cc2)[C@H](O)[C@@H](O)[C@@H]1O` [Arbutin, reference compound]: the “Melanin amount (% of control)” value in assay [1] (0.1 mM) is recorded as 97.29 % of control; in assay [1] (0.3 mM), 88.86 % of control; in assay [1] (1 mM) it was 83.02 % of control.
As for `O=C(CCCCC1CCSS1)NCCS(=O)(=O)[O-].[Na+]` (stereo not drawn) [Reference Example 1, N-α-lipoylaminoethanesulfonic acid sodium salt], the “Tyrosine hydroxylase inhibition rate” value in assay [2] (test compound 0.1 mM) came out at 11%; in assay [2] (test compound 1 mM) it was 10%.
As to `CSCCC(NC(=O)CCCCC1CC[S][Zn][S]1)C(=O)O` (centres unmarked) [Example 9, N-(6,8-dimercaptooctanoyl)methionine zinc chelate compound], the “Melanin amount (% of control)” value in assay [1] (0.03 mM) is 63.05 % of control; in assay [1] (0.1 mM), 50.18 % of control; in assay [1] (0.3 mM) it was 16.41 % of control. Moreover, in assay [1], the “Suppressive action” value is “potent suppressive action on melanin production”. Further, the “Elastase inhibition rate (%)” value is listed as 7.41% in the assay with elastase (0.03 mM), 68.52% with elastase (0.1 mM) and 88.89% in the assay with elastase (0.3 mM). In addition, in the assay with elastase, the “Elastase inhibiting activity (in words)” value is “comparable to Elastinal”.
`O=C(CCCCC1CC[S][Zn][S]1)NC(Cc1ccccc1)C(=O)[O-].[Na+]` (centres unmarked) [Example 7, N-(6,8-dimercaptooctanoyl)phenylalanine sodium salt zinc chelate compound]: the “Melanin amount (% of control)” value in assay [1] (0.03 mM) is recorded as 71.43 % of control; in assay [1] (0.1 mM) it was 37.78 % of control. Further, in assay [1], the “Suppressive action” value is “potent suppressive action on melanin production”. In the assay on elastase (0.03 mM), the “Elastase inhibition rate (%)” value is 83.33%. Besides, in the assay with elastase, the “Elastase inhibiting activity (in words)” value was “comparable to Elastinal”.
In the case of `O=C(CCCCC1CC[S][Zn][S]1)NCCS(=O)(=O)[O-].[Na+]` (centres unmarked) [Example 1, N-(6,8-dimercaptooctanoyl)aminoethanesulfonic acid sodium salt zinc chelate compound], the entries for the “Melanin amount (% of control)” value in assay [1] (0.03 mM), in assay [1] (0.1 mM) and in assay [1] (0.3 mM) were 78.33 % of control, 30.01 % of control and 12.28 % of control, respectively. In addition, the “Suppressive action” value in assay [1] is “potent suppressive action on melanin production”. Also, the “Tyrosine hydroxylase inhibition rate” value in assay [2] (test compound 0.1 mM) is listed as 15%; in assay [2] (test compound 1 mM), 53%.
Consider `CC(C)C[C@H](NC(=O)N[C@H](C(=O)N[C@@H](CCC(N)=O)C(=O)N[C@@H](C)C=O)[C@@H]1CCNC(=N)N1)C(=O)O` [Elastinal, reference compound], for which the “Elastase inhibition rate (%)” value was found to be 25.29% in the assay on elastase (0.03 mM), 56.87% in the assay on elastase (0.1 mM), 77.45% in the assay on elastase (0.3 mM) and 93.01% in the assay with elastase (1 mM).
With `O=C([O-])CCCCCNC(=O)CCCCC1CC[S][Zn][S]1.[Na+]` (centres unmarked) [Example 5, N-(6,8-dimercaptooctanoyl)-6-aminohexanoic acid sodium salt zinc chelate compound], the entries for the “Melanin amount (% of control)” value in assay [1] (0.03 mM), in assay [1] (0.1 mM) and in assay [1] (0.3 mM) were 64.43 % of control, 27.69 % of control and 9.85 % of control, respectively. For the same compound, in assay [1], the “Suppressive action” value is “potent suppressive action on melanin production”. In the assay with elastase (0.03 mM), the “Elastase inhibition rate (%)” value is on record as 94.74%. Also, the “Elastase inhibiting activity (in words)” value in the assay on elastase is “comparable to Elastinal”.
In the case of `O=C(O)CCCCC1CCSS1` (stereo not drawn) [α-lipoic acid, reference compound], in assay [2] (summary of Table 1), the “Tyrosine hydroxylase inhibiting activity (in words)” value is recorded as “no tyrosine hydroxylase inhibiting activity”. Further, the “Tyrosine hydroxylase inhibition rate” value in assay [2] (test compound 0.1 mM) is reported as 2%; in assay [2] (test compound 1 mM), 1%. In addition, the “Elastase inhibition rate (%)” value is given as −2.94% in the assay with elastase (0.03 mM), 11.76% in the assay on elastase (0.1 mM) and 10.29% with elastase (0.3 mM). For the same compound, in the assay on elastase, the “Elastase inhibiting activity (in words)” value is recorded as “did not show any elastase inhibiting activity”.
Turning to `O=C([O-])CCCNC(=O)CCCCC1CC[S][Zn][S]1.[Na+]` (centres unmarked) [Example 6, N-(6,8-dimercaptooctanoyl)-γ-amino-n-butyric acid sodium salt zinc chelate compound], the entries for the “Melanin amount (% of control)” value in assay [1] (0.03 mM), in assay [1] (0.1 mM) and in assay [1] (0.3 mM) were 61.18 % of control, 29.20 % of control and 9.73 % of control, respectively. For the same compound, in assay [1], the “Suppressive action” value is “potent suppressive action on melanin production”. Further, in the assay on elastase (0.03 mM), the “Elastase inhibition rate (%)” value is given as 78.95%. The “Elastase inhibiting activity (in words)” value in the assay on elastase was “comparable to Elastinal”.
